Drawing on US10407445B2, “Hepatitis C virus inhibitors” (ENANTA PHARMACEUTICALS, INC., priority 2013, dated 2019), this text covers EC50 for two compounds.

What all share (assay type): cell-based
Assay [1] has as its system wild type (wt) HCV genotype 1a replicon. Put plainly: Transient replication assay, HCV genotype 1a wild type (wt). The following applies: Hepatitis C virus; HCV genotype 1a replicon wt. For orientation: Replicon systems follow genome replication, usually without infectious particles.
The test system of the next assay is GT4a-ED43 replicon. Nature of the assay: Stable replicon assay, comparison to daclatasvir, GT4a-ED43. The following applies: Hepatitis C virus. The source says: The GT3a-S52 replicon plasmid pSGRlucneo-GT3a-S52-HDVR-(ISH) was synthesized by Genscript. This plasmid encodes a GT3a (strain S52, accession GU814264) bicistronic subgenomic replicon encoding the hRluc-Neo reporter gene in the first cistron and NS3-NS5B, driven by an encephalomyocarditis virus (EMCV) internal ribosome entry site (IRES), in the second cistron. The hepatitis delta ribozyme (HDVR) was included after the HCV 3′ NTR followed by a unique SpeI restriction site for linearization. This replicon encodes three cell culture adaptive mutations, P1226S (NS3), D1437H (NS3), and S2210I (NS5A), as described previously (Saeed et al 2012 Antimicrob. Agents Chemother. 54: 1878-1887). The GT4a-ED43 replicon plasmid pSGRlucneo-GT4a-ED43-HDVR-(KG) was synthesized by Genscript. […]
(§1) Stable HCV replicon cell lines were grown in complete media (Dulbecco's modified Eagle medium [DMEM], 2 mM L-glutamine, 0.1 mM essential amino acids, 1 mM sodium pyruvate, 10% fetal bovine serum) with the addition 500 μg/ml […] (G418). […] For stable and transient replicon assays, luciferase activity of compound-treated cells was measured relative to DMSO-treated cells after 72 h incubation using RENILLA-GLO™ Luciferase Assay (Promega). […]

In assay [2] the test system is HCV genotype 1a replicon, NS5A Q30K. Put plainly: Transient replication assay, GT1a NS5A Q30K. The conditions noted are these: Hepatitis C virus.
The subject of another assay is GT1a-H77 replicon. Put plainly: Stable replicon assay, comparison to daclatasvir, GT1a-H77. The conditions noted are these: Hepatitis C virus; Replicon GT1a-H77, NS5A genotype 1a. On the procedure:
(§2) Stable HCV replicon cell lines were grown in complete media (Dulbecco's modified Eagle medium [DMEM], 2 mM L-glutamine, 0.1 mM essential amino acids, 1 mM sodium pyruvate, 10% fetal bovine serum) with the addition 500 μg/ml […] (G418). Huh7-lunet cells were maintained in the same medium without the addition of G418. Cells were routinely passaged at a dilution of 1:5 two times per week. For stable replicon assays (GT1a-H77, GT1b-Con1, GT2a-JFH, GT2a-J6, GT2a-2b-MD2b, GT2a-2b-J8, GT2a-3a-S52, GT3a-552, GT4a-ED43, GT2a-5a-SA13, GT2a-6a-EUKH2, GT2a-6a-HK6a, and GT2a-7a-QC69), an 8-point 3-fold or half-log dilution series of compound was transferred into three replica 96-well plates containing 1×10^4 cells per well in phenol red-free complete media without G418. For the transient replication assay, Huh7-lunet cells in ice-cold phosphate buffered saline (PBS) were electroporated (Bio-Rad Gene pulser: 950 uF, 270V) with 10 μg purified in vitro transcribed HCV replicon RNA, followed by resuspension in phenol red-free complete media without G418 and plating (1×10^4 cells in 200 μL media/well) into three replica 96-well plates prior to compound addition (1 μl compound per well). For stable and transient replicon assays, luciferase activity of compound-treated cells was measured relative to DMSO-treated cells after 72 h incubation using RENILLA-GLO™ Luciferase Assay (Promega). […]

The subject of a further assay is GT1b-Con1 replicon. Put plainly: Stable replicon assay, comparison to daclatasvir, GT1b-Con1. The conditions noted are these: Hepatitis C virus; Replicon GT1b-Con1, NS5A genotype 1b. On the procedure: as §2
In assay [3] the test system is HCV genotype 1a replicon, NS5A M28V Q30R. Put plainly: Transient replication assay, GT1a NS5A M28V Q30R. The conditions noted are these: Hepatitis C virus.
Another assay relates to GT2a-JFH replicon. Put plainly: Stable replicon assay, comparison to daclatasvir, GT2a-JFH. The following applies: Hepatitis C virus.
Excerpt: The plasmid pSG-hRlucNeo-JFH1 was generated from pSG-Neo-JFH1 (Kato et al. 2003, Gastroentrology 125:1808-1817). A fragment containing the JFH-1 5′ NTR-hRluc-Neo gene and two unique restriction sites (AgeI and PmeI) was synthesized (Integrated DNA Technologies, Coralville, Iowa). The resulting plasmid was digested with AgeI and PmeI and the excised fragment (5′NTR-hRluc-Neo) was ligated into pSG-Neo-JFH1 digested with the same enzymes to generate pSG-hRlucNeo-JFH1. To allow expression of heterologous NS5A sequences, an NS5A shuttle vector was generated from pSG-Neo-JFH1, in which the entire coding sequence of NS5A plus the first eight codons of NS5B were replaced with an AfeI restriction site. This was done by Infusion cloning (Clontech, Mountain View, Calif.) from two PCR products that were generated using pSG-Neo-JFH1 as a template and the following primer pairs: […]
as §1

Molecules are shown by their SMILES.

What is called EC50 is the concentration needed to bring the measured effect to its halfway point. Low readings indicate a more potent agent, high ones a less potent agent.

With `COC(=O)N[C@H](C(=O)N1C[C@]2(CCCOC2)C[C@H]1c1ncc(-c2ccc(-c3ccc4c(ccc5nc([C@@H]6C[C@@H]7CCC[C@@H]7N6C(=O)[C@@H](NC(=O)OC)C(C)C)[nH]c54)c3)cc2)[nH]1)C(C)C` [Compound 16], the EC50 in assay [1] was determined as 0.0014 nM; in the assay with GT4a-ED43 replicon, 0.011 nM; in assay [2], 0.05 nM; in the assay with GT1a-H77 replicon it was 0.007 nM; in the assay on GT1b-Con1 replicon, 0.008 nM; in assay [3], 0.16 nM. The compound also returned an EC50 in the assay on GT2a-JFH replicon of 0.004 nM.

As to `COC(=O)N[C@H](C(=O)N1CCC[C@H]1c1nc(-c2ccc(-c3ccc(-c4c[nH]c([C@@H]5CCCN5C(=O)[C@@H](NC(=O)OC)C(C)C)n4)cc3)cc2)c[nH]1)C(C)C` [Daclatasvir, reference compound], the EC50 in assay [1] worked out at 0.0083 nM; in the assay on GT4a-ED43 replicon it was 0.025 nM; in assay [2] it was 7.9 nM; in the assay on GT1a-H77 replicon, 0.06 nM; in the assay on GT1b-Con1 replicon, 0.02 nM; in assay [3], 1.2 nM. Also, the EC50 in the assay on GT2a-JFH replicon worked out at 0.008 nM.
